The structures appear in SMILES notation. Where only a bound is given, the exact number is not on record here.

For 63 compounds, melting point results are on record in a melting point compilation (Tetko et al.; mined from patent text by program, amines drawn as free bases though some values may be those of a salt).

Take `O=C1NC(=O)C(=Cc2ccc(OC3CCN(c4ccccn4)CC3)cc2)S1`: the melting point (usually the temperature, or range, at which the solid turns liquid) lay within 218 to 220 °C.
In the case of `NC(=O)c1ccc2c(c1)C(=C(Cl)Cl)OC(=C(Cl)Cl)O2`, the melting point was 217 to 218 °C.
Then `NC(=NO)c1ccc(-c2ccc(Cl)cc2)o1`, with 167 to 169 °C; and `ON=Cc1c(C(F)(F)F)ccc(F)c1F`, with 111 to 112 °C.
Then `COc1ccc2c(Cl)cc(-c3ccc(Cl)c(Cl)c3)nc2c1`, with 122 to 131 °C; and `COC(=O)CCc1cc2cc(Cl)ccc2n1S(=O)(=O)c1ccc(F)cc1`, with 129 to 131 °C; and `Oc1cc(C(F)(F)F)[nH]n1`, with 211 to 215 °C.
The value for `COc1cc(Cc2cnc(N)nc2N)c(Cc2cnc(N)nc2N)cc1OC` was 280 °C.
Consider `O=C(O)c1ccc(=O)n(CCNC(=O)c2ccccn2)c1`, for which the melting point fell in the range of 266 to 268 °C.
Then `O=C(O)c1cc(N2CCCCC2)ccc1[N+](=O)[O-]`, with 130 to 140 °C; and `CCN1c2ncccc2C(NC)=Nc2c(C)cc(C)nc21`, with 128 to 130 °C.
In the case of `COCC1COc2cc3ncnc(Nc4cccc(Br)c4)c3cc2O1` (stereo not drawn), the melting point fell in the range of 268 to 274 °C.
Then `COc1cc(-c2[nH]c3ccc(OCc4ccccc4)cc3c2C)ccc1OCc1ccccc1`, with 155 to 158 °C; and `CC1(C)C(=O)Oc2ccc3ccc(C(C#N)n4cncn4)cc3c21` (stereo not drawn), with 196 to 198 °C.
Then `COc1ccc(-c2cc(=S)n(Cc3ccc(F)cc3F)nc2-c2ccc(OC)cc2)cc1`, with 175 to 176 °C.
The value for `O=C(O)CCc1cccc(-c2nc(=O)c3ccc(F)cc3s2)n1` was 215 to 217 °C; that for `O=C(O)C=Cc1cc([N+](=O)[O-])c(F)cc1Cl` was 164 to 171 °C; that for `O=C(Nc1cccc(S(=O)(=O)NC2CC2)c1)c1cnn2c(C(F)F)cc(-c3ccc(Cl)c(Cl)c3)nc12` was 254 °C.
For `Cn1c(COc2ccc(CC3SC(=O)N(C(c4ccccc4)(c4ccccc4)c4ccccc4)C3=O)cc2)nc2ccc(Oc3ccc(C#N)cc3)cc21` (stereo not drawn), the melting point lay within 135 to 138 °C.
In the case of `Cn1ncc2c1-c1c(Oc3ccc(O)cc3)sc(C(N)=O)c1CC2`, the melting point lay in the range of 137 to 139 °C.
The compound `CCCN(CCC)c1nsc(NC(=O)NC)c1C#N` yielded a melting point of 179 to 180 °C.
Consider `COc1ccc(NC(=O)CCCC(O)c2ccc(OC)cc2)cc1` (stereo not drawn), for which the melting point was 118 to 120 °C.
Then `O=c1nc(-c2cccc(Cl)c2)c2cc(C(c3ccc(Cl)cc3)n3ccnc3)ccc2n1Cc1ccncc1` (stereo not drawn), with 61.4 °C; and `Cc1oc(-c2ccccc2)nc1COc1cc(CO)ccn1`, with 100 to 101 °C.
`CC(C)(C)OC(=O)Nc1ccc2c3c(cc([N+](=O)[O-])c2c1)N(C(=O)C(F)(F)F)CC3CCl` (stereo not drawn) showed a melting point of 219 to 220 °C.
Then `CC1CC(=O)Nc2nc(C#N)c3ncccc3c21` (stereo not drawn), with greater than 300 °C; and `COc1c(O)c(C)c2c(c1OC)OC(C)(CN1CCC(c3ccccc3)CC1)C2` (stereo not drawn), with 112 to 113 °C; and `CC(CS)C(=O)N(C)c1cncc(C(=O)O)c1` (stereo not drawn), with 190 to 192 °C.
Turning to `O=C(NCc1ncc(C(F)(F)F)cc1Cl)c1c(Cl)ccnc1Cl`, the melting point is 122 to 124 °C.
The value for `CCN(CC)c1ccc(C2(c3c(C)n(CCOC)c4ccccc34)OC(=O)c3ccccc32)c(C)c1` (stereo not drawn) was 140 to 143 °C.
In turn, `COc1cc(C(=O)N2CCC(CCN3CCC(Nc4nc5ccccc5n4Cc4ccc(Cl)s4)CC3)(c3ccc(F)c(F)c3)C2)cc(OC)c1OC` (stereo not drawn) gave a melting point of 110 to 120 °C.
Then `CC[C@H](NC(=O)OC(C)(C)C)C(=O)OCCCCNc1cccc2c1C(=O)c1ccccc1C2=O`, with 58 °C; and `OC(CCN1CCC(c2ccc(F)cc2)CC1)c1ccc(Cc2ccc(Cl)cc2)cc1` (stereo not drawn), with 94 to 95 °C.
The value for `Fc1ccc2c(c1)C1=NCCN1C(Cl)=N2` was 209 to 211 °C; that for `O=S(=O)(Nc1nc2ncccn2n1)c1ccccc1Cl` was 254 to 256 °C; that for `O=S(c1ccc(-n2cnnn2)cc1)C(F)F` (stereo not drawn) was 109 to 112 °C.
The compound `CCN1C(=O)C2C3C=CC(CC3)C2(c2ccc(Cl)c(Cl)c2)C1=O` (stereo not drawn) yielded a melting point of 122 to 126 °C.
`Cc1sc2nc3ccc(C(N)=O)cn3c(=O)c2c1C` showed a melting point of 361 to 363 °C.
Then `CC(=O)Nc1c(C(=O)c2ccccc2C)[nH]c2cc(Cl)ccc12`, with 140 to 142 °C; and `COC(=O)c1ccc(OCCCCCCc2cccc(OCc3ccccc3)c2OCc2ccccc2)c(Cl)c1`, with 68 to 69 °C; and `CC(=O)Nc1ccc(C)c2c1C(=O)CCC2`, with 92 to 94 °C.
In the case of `CN1Cc2c(C(=O)OC(C)(C)C)ncn2-c2ccncc2C1=O`, the melting point was in the range of 214 to 215 °C.
Then `CC(C)(C)c1cc(CCc2ccccc2NC(=O)NCc2cccnc2)cc(C(C)(C)C)c1O`, with 163 to 164 °C.
The value for `O=C(NC1CCN(CCC2CCCCC2)CC1)c1ccccc1` was 174 to 175 °C; that for `CC(=O)N[C@@H](CSC(c1ccccc1)(c1ccccc1)c1ccccc1)C(=O)N1CCSC1` was 197 to 198 °C.
In the case of `CNCCc1ccc2[nH]c(C)c(C(=O)OCc3ccccc3)c2c1`, the melting point is 65 to 68 °C.
The compound `Cn1cc(-c2cc(-c3cnc4[nH]ccc4c3)ccn2)n(-c2cccc(C#N)c2)c1=O` gave a melting point of 265 °C.
Then `CNC(=O)NNC(=S)N1N=C(c2ccc([N+](=O)[O-])cc2)c2cc3c(cc2CC1C)OCO3` (stereo not drawn), with 200 °C; and `CC(=O)Oc1ccc(Cn2ccnc2SC(C)=O)cc1F`, with 78 to 80 °C; and `O=C(O)c1cc(Cl)cc2c1O[C@@H]1CCCC[C@H]21` (relative stereo), with 132 to 134 °C.
The value for `CC(C(=O)O)c1ccc2c(c1)C(=O)c1ccc(Cl)cc1CS2` (stereo not drawn) was 137 to 138 °C; that for `CCCCOC(=O)Oc1ccc(-c2ccc(C#N)cc2)cc1` was 64.8 to 65.7 °C.
Then `O=c1nc(-c2ccccc2)cnn1-c1cc(Cl)cc(Cl)c1`, with 160 to 161 °C; and `Cc1cccc(OCC2=NCCN2C(=S)N(C)C)c1C`, with 124 to 127 °C; and `COC(CCCCC(N)=O)OC`, with 57 °C.
As for `CC(=O)c1c(C)oc(-c2ccncc2)c1C`, the melting point lay in the range of 65 to 66.5 °C.
Compound `O=Cc1ccc(OCCN2Cc3ccccc3C2=O)cc1` came in with a melting point of 134 to 135 °C.
For the compound `O=C(Nc1ccc(C(=O)N2Cc3ccccc3Cc3ccccc32)cc1)c1cc(Cl)cc(Cl)c1Cl`, the melting point is 225 to 230 °C.
Regarding `O=C(O)Cc1ccc(C(NC(=O)c2ccccc2)C(=O)O)cc1` (stereo not drawn), the melting point lay in the range of 180 to 220 °C.
`CCOC(=O)c1ncsc1-c1cccc(I)c1`: the melting point fell in the range of 77 to 78 °C.
For `Cc1cc2c(c3ccc(=O)[nH]c13)OC(CSCCN(C)C)C2` (stereo not drawn), the melting point lay in the range of 163 to 165 °C.
Compound `O=C(NNC(=O)c1ccc([N+](=O)[O-])cc1)c1ccccc1` registered a melting point of 254 to 256 °C.
Consider `CCOC(=O)CN1C(=O)C(NC(=O)Nc2ccc(Cl)cc2)N=C(c2ccccc2F)c2ccccc21` (stereo not drawn), for which the melting point fell in the range of 253 to 254 °C.
